ChEMBL document CHEMBL3217708, “2-Anilinonicotinyl linked 1,3,4-oxadiazole derivatives: Synthesis, antitumour activity and inhibition of tubulin polymerization” (2011)

How the values were obtained:
[1] = biological target: Tubulin (Bos taurus) (UniProt Q6B856+Q862L2+Q862F3); assay: Inhibition of bovine brain tubulin polymerization at 3 uM measured for 1 hr by fluorimetric assay
[2] = system: A549; assay: Cell cycle arrest in human A549 cells assessed as accumulation at G2/M phase at 1 uM after 48 hrs by propidium iodide staining based flow cytometry (reference value: 10%); assay type: functional
[3] = system: A549; assay: Induction of apoptosis in human A549 cells assessed as caspase-3 activation at 1 uM after 24 hrs by fluorimetry relative to control; assay type: functional
[4] = system: A549; assay: Cell cycle arrest in human A549 cells assessed as accumulation at S phase at 1 uM after 48 hrs by propidium iodide staining based flow cytometry (reference value: 10%); assay type: functional
[5] = system: A549; assay: Inhibition of alpha-tubulin polymerization in human A549 cells assessed as ratio of soluble to polymerized tubulin at 1 uM after 24 hrs by western blot analysis; assay type: functional
[6] = system: HeLa; assay: Growth inhibition of human HeLa cells after 48 hrs by sulforhodamine B assay; assay type: functional
[7] = system: HepG2; assay: Growth inhibition of human HepG2 cells after 48 hrs by sulforhodamine B assay; assay type: functional; conditions: HepG2, 48 h
[8] = system: MDA-MB-231; assay: Growth inhibition of human MDA-MB-231 cells after 48 hrs by sulforhodamine B assay; assay type: functional; conditions: MDA-MB-231, 48 h
[9] = system: DU-145; assay: Growth inhibition of human DU145 cells after 48 hrs by sulforhodamine B assay; assay type: functional; conditions: DU-145, 48 h
[10] = system: A549; assay: Growth inhibition of human A549 cells after 48 hrs by sulforhodamine B assay; assay type: functional; conditions: A549, 48 h
[11] = system: A549; assay: Induction of apoptosis in human A549 cells assessed as caspase-9 activation at 1 uM after 24 hrs by fluorimetry relative to control; assay type: functional
[12] = system: A549; assay: Cell cycle arrest in human A549 cells assessed as accumulation at G1 phase at 1 uM after 48 hrs by propidium iodide staining based flow cytometry (reference value: 78%); assay type: functional

Structure (SMILES)	inhibition [1] [%]	Activity [2] [%]	fold change (FC) [3]	Activity [4] [%]	Ratio [5]	GI50 [6] [µM]	GI50 [7] [µM]	GI50 [8] [µM]	GI50 [9] [µM]	GI50 [10] [µM]	fold change (FC) [11]	Activity [12] [%]
COc1cc(Nc2ncccc2-c2nnc(Nc3ccc(Cl)cc3)o2)cc(OC)c1OC	38											
COc1cc(Nc2nnc(-c3cccnc3Nc3cc(OC)c(OC)c(OC)c3)o2)cc(OC)c1OC	41											
COC(=O)Nc1nc2cc(C(=O)c3cccs3)ccc2[nH]1 [NOCODAZOLE]	70	18	4	25	6	0.75	0.76	0.15	0.19	0.21	4	55
